Data as given in patent publication US20090215895A1, “Therapeutic and carrier molecules” (PEPLIN BIOLIPIDS PTY LTD, priority 2004, published 2009).
Entries after “also recorded” stand apart in the source; their conditions may differ.

How the values were obtained:
neutrophil NADPH oxidase = experiment: Neutrophil respiratory burst (NADPH oxidase activation, chemiluminescence); format: cell-based, human; settings: human neutrophils, up to 30 μmol/l
Protocol: The structure of PT2 is shown in (c) above. In this screening assay, neutrophils were prepared from the blood of healthy volunteers. Freshly collected blood was layered onto a Hypaque-Ficoll medium of density 1.114 and centrifuged at 400 g for 30 mins at room temperature. After centrifugation, the leukocytes resolved into two distinct bands, with neutrophils being present in the second band (Ferrante and Thong, J. Immun. Methods 48:81-85, 1982).
Activation of the neutrophil NADPH oxidase was measured by lucigenin-dependent chemiluminescence following a 10 min incubation of PT2 (20 μM, final concentration) with 1×10^6 neutrophils from different donors (Power et al, J. Immunol. 159:2952-2959, 1997). Arachidonic acid (20:4, n-6) was used as a positive stimulator of the oxidase
Neutrophil respiratory burst was determined as previously described (Li et al, J. Clin. Invest. 97:1605-1609, 1996).

JNK = experiment: TNF-stimulated MAP kinase activity in HUVEC; format: cell-based, human; settings: HUVEC pre-treated with the fatty acid
Protocol: (§1) ERK and p38 were precipitated with anti-ERK2 (C-14, sc-154) and anti-p38 (C-20, sc-535) antibody, respectively (Santa Cruz Biotech) and the activity determined using myelin basic protein as a substrate (Hii et al, 1995 supra, Hii et al, 1998 supra). JNK activity was determined in a solid phase assay using GST c-Jun (residues-1-79) as a substrate (Hii et al, 1995 supra, Hii et al, 1998 supra).

ERK = experiment: TNF-stimulated MAP kinase activity in HUVEC; format: cell-based, human; settings: HUVEC pre-treated with the fatty acid
Protocol: as §1

p38 = experiment: TNF-stimulated MAP kinase activity in HUVEC; format: cell-based, human; settings: HUVEC pre-treated with the fatty acid
Protocol: as §1

VCAM-1 = experiment: Adhesion molecule expression on HUVEC (ELISA); format: cell-based, human; settings: for Suppression of TNF-α-induced VCAM-1 expression on HUVEC: 60 min pre-treatment
Protocol: (§2) FIG. 13 is a representation showing effect of MP3 (β-oxa-23:4n-6) and 20:4n-6 on time-related changes in TNF-α-induced E-selectin, ICAM-1 and VCAM-1 expression on HUVEC. HUVEC were pre-treated with 20 μmol/l β-oxa-23:4n-6 (closed triangles), 20 μmol/l 20:4n-6 (open squares), or DPC (control) for 60 min and then further incubated with TNF-α (125 U/200 μl medium) for up to 24 hr. The expression of E-selectin, ICAM-1 and VCAM-1 adhesion molecules was determined by ELISA. The results are expressed as % of control and represent the mean±SEM of three separate experiments each performed in triplicate. * p<0.05, **p<0.01, ***p<0.001, for significant differences between pre-treatment with fatty acid and corresponding control at a particular time point (one-way analysis of variance followed by the Dunnett test for multiple comparisons). Inset: The effect of β-oxa-23:4n-6 on TNF-α-induced expression of E-selectin mRNA in HUVEC. HUVEC were pre-incubated with β-oxa-23:4n-6 (20 μmol/l) or DPC (control) in 1 ml of medium at 37° C. for 60 min. After the addition of TNF-α, the cells were further incubated at 37° C. for 2 hr. E-selectin mRNA expression was then determined and the results expressed as relative %. Results are the mean±SEM of three separate experiments each performed in quadruplicate. *p<0.0001, for significant differences between pre-treatment with β-oxa-23:4n-6, and control (two-tailed Student's t-test for unpaired data).
(§3) HUVEC were stimulated with TNF, bacterial lipopolysaccharide (LPS) or PMA for 24 hr. Expression of E-selectin, ICAM-1 and VCAM-1 was determined by an enzyme-linked immunosorbent assay (ELISA) or as mRNA using a slot blot technique (Huang et al 1997 supra).

ICAM-1 = experiment: Adhesion molecule expression on HUVEC (ELISA); format: cell-based, human; settings: for Suppression of TNF-α-induced ICAM-1 expression on HUVEC: 60 min pre-treatment
Protocol: as §2, §3

[1] = Tolerability of intravenous MP3; format: in vivo, mice; settings: 50 mg/kg intravenously, 4 days
Source text: In accordance with the present invention, a novel engineered polyunsaturated fatty acid, β-oxa-23:4n-6 (MP3) (FIG. 5) is identified which has the hall-marks of a new class of pharmaceuticals based on polyunsaturated fatty acids and which can be used to prevent and/or treat cardiovascular disease. […] The focus of this embodiment of the subject invention is, therefore, the efficacy of MP3 at suppressing adhesion molecule expression in vivo and the development of atherosclerosis.

IKK = experiment: TNF-stimulated activation of IKK in HUVEC (immunoprecipitation kinase assay); format: cell-based, human; settings: 20 μmol/l, 30 min, TNF 5 min
Protocol: FIG. 17 is a representation showing (A) the effect of MP3 (β-oxa 23:4n-6) and DHA on TNF-induced degradation of IκBα in HUVEC. Cells were pre-treated with the fatty acids (20 μmol/l) for 30 min and then stimulated with TNF (125 U/ml) for 10 min. After cell lysis the proteins were analyzed by Western blots using anti-IκBα antibodies. (B) The effects of β-oxa-23:4n-6 on TNF-induced activation of transcriptional factor, NFκB in HUVEC. Cells were pre-treated with β-oxa-23:4n-6 (20 μmol/l) for 30 min and then stimulated with TNF for 2 hr. After cell lysis, nuclear fractions were prepared, nuclear proteins separated by SDS PAGE (12% w/v gel), transferred to nitrocellulose and probed with an anti-NFκB p65 antibody (Santa Cruz). […] (C) The effect of β-oxa 23:4n-6 on TNF-stimulated activation of IKK. Cells were pre-treated with β-oxa 23:4n-6 (20 μmol/l) for 30 min and then stimulated with TNF for 5 min. After cell lysis IKK was immunoprecipitated with anti-IKKα antibody and kinase activity determined.
IKK was immunoprecipitated with anti-IKKα (M-280) antibody (sc-7182, Santa Cruz, Biotech) and kinase activity determined using GST-IκBA (residues 5-55) as previously described (Lee et al, 1998 supra). Proteins were fractionated by SDS PAGE and radioactivity associated with GST-IκBα (residues 5-55) determined using an instant imager.

[2] = 20 μmol/l, listed as β-oxa-23:4n-6

## CCCCC/C=C\C/C=C\C/C=C\C/C=C\CCCCOCC(=O)O [MP3, β-oxa-23:4n-6]
Neutrophil NADPH oxidase
  Stimulation of the neutrophil respiratory burst (chemiluminescence response): relatively poor at stimulating this response; also recorded: failed to cause any significant respiratory burst
JNK
  Effect on ability of TNF to stimulate JNK: did not affect
ERK
  Effect on ability of TNF to stimulate ERK: did not affect
p38
  Effect on ability of TNF to stimulate p38: did not affect
VCAM-1; 20 μmol/l
  Suppression of TNF-α-induced VCAM-1 expression on HUVEC: better than docosahexaenoic acid (22:6n-3) at suppressing
VCAM-1; [2]
  Suppression of TNF-α-induced VCAM-1 expression on HUVEC: inhibited the expression
VCAM-1; 20 μmol/l, TNF-α
  Time of cytokine treatment at maximum inhibition of VCAM-1 expression: 12 h
VCAM-1; HUVEC
  Inhibition of LPS and PMA-induced up-regulation of VCAM-1: inhibited LPS and PMA-induced, up-regulation
ICAM-1; 20 μmol/l
  Suppression of TNF-α-induced ICAM-1 expression on HUVEC: better than docosahexaenoic acid (22:6n-3) at suppressing
ICAM-1; [2]
  Suppression of TNF-α-induced ICAM-1 expression on HUVEC: inhibited the expression
ICAM-1; 20 μmol/l, TNF-α
  Time of cytokine treatment at maximum inhibition of ICAM-1 expression: 6 h
ICAM-1; HUVEC
  Inhibition of LPS and PMA-induced up-regulation of ICAM-1: inhibited LPS and PMA-induced, up-regulation
[1]
  Observable signs of distress: did not cause any observable signs of distress
IKK
  TNF-stimulated activation of IKK / IκB kinase-NFκB signalling pathway: inhibits the ability of TNF to activate
IKK; listed as β-oxa 23:4n-6
  TNF-stimulated activation of IKK / IκB kinase-NFκB signalling pathway: significantly inhibited
